Test results as given in patent publication US4925664A, “Spider toxins and methods for their use as blockers of calcium channels and amino acid receptor function” (priority 1986, dated 1990).

system: transmission between the cochlear nerve afferents and the cochlear nucleus neurons; experiment: Blockade of synaptic transmission in chick cochlear nucleus, in vitro chick brain stem preparation (field potential); type: cell-based; settings: conventional EAA receptor antagonists and agonists
Description: The toxin was bath-applied to cochlear nucleus neurons in an in vitro preparation of chick brain stem.
In order to test the effects of the spider venom, late embryos or hatchling chickens were used in all experiments. Brain stems were removed and maintained in vitro using methods known and described in the art, except that the temperature in the recording chamber was held at 32° C. The tissue was superfused in avian Tyrode solution at about 1 ml per minute.
The field potential evoked by direct electrical stimulation of the cochlear nerve was recorded with a 4M potassium acetate electrode. The short latency component of the field potential reflects the compound action […] of cochlear nerve axons. This afferent volley is followed by a negativity representing the postsynaptic response of NM neurons.

Structure (SMILES) | concentration required to completely suppress transmission
O=C(O)[C@H]1CCCN[C@H]1C(=O)O (relative stereo) [cis-2,3-piperidine dicarboxylic acid] | millimolar range
N[C@H](CCC(=O)NCC(=O)O)C(=O)O [-D-glutamylglycine] | millimolar range
N[C@@H](Cn1oc(=O)[nH]c1=O)C(=O)O [quisqualate] | millimolar concentrations
